# Data from the supplement of paper PMC12463676, “Small-molecule dissolution of stress granules by redox modulation benefits ALS models” (Nature Chemical Biology, 2025).
# What was measured:
# lipoamide = compound: NC(=O)CCCCC1CCSS1 [lipoamide]; experiment: thermal stability z-score vs DMSO; higher = more thermally stabilized by treatment; conditions: HeLa, lipoamide concentration 100 µM
# Description: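 Cellular thermal proteome profiling in HeLa cells. Cells were treated with 100 µM lipoamide for 1 h, with or without 1 mM arsenate for a further 1 h, then heated to ten temperatures (37-66.3 °C), and soluble protein was quantified by TMT mass spectrometry relative to 0.1% DMSO controls. The thermal stability score (sum of log2 fold changes minus the abundance score) was transformed to a z-score; mean of n = 3 experiments.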
# potassium arsenate = compound: O=[As]([O-])(O)O.[K+] [potassium arsenate]; experiment: as above; conditions: HeLa; arsenate concentration 1 mM
# Description: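 Cellular thermal proteome profiling in HeLa cells treated with 1 mM arsenate for 1 h (DMSO pretreatment), heated to ten temperatures (37-66.3 °C). Soluble protein was quantified by TMT mass spectrometry relative to DMSO controls; the thermal stability score was transformed to a z-score; mean of n = 3 experiments.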
# [1] = arsenate co-treatment: 1 mM arsenate 1 h
# 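Further: each temperature applied for 3 min, abundance score taken as mean log2 fold change at the two lowest temperatures, z-score obtained by mean subtraction and division by SD.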
# UniProt Q969M7, sequence (Q969M7 whole entry): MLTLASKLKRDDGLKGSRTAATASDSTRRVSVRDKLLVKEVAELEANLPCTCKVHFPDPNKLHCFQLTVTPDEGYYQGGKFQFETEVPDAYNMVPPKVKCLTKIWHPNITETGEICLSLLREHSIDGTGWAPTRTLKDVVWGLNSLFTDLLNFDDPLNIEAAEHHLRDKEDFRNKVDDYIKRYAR
# UniProt Q96N21, sequence (Q96N21 whole entry): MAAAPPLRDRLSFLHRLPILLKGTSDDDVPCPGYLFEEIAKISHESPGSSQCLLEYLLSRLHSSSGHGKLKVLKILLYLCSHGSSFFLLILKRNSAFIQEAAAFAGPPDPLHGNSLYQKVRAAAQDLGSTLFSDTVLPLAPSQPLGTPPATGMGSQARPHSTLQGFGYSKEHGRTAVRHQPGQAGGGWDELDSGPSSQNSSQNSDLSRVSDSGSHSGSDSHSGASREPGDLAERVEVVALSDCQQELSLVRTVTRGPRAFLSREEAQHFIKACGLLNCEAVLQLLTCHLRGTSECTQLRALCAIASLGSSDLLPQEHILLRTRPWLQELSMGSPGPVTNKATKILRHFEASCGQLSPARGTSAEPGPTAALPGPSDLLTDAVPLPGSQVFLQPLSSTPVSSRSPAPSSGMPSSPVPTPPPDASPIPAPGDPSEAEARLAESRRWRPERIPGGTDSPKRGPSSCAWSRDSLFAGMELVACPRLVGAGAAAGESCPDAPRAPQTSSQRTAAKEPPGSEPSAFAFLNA
# UniProt P00973, sequence (P00973 whole entry): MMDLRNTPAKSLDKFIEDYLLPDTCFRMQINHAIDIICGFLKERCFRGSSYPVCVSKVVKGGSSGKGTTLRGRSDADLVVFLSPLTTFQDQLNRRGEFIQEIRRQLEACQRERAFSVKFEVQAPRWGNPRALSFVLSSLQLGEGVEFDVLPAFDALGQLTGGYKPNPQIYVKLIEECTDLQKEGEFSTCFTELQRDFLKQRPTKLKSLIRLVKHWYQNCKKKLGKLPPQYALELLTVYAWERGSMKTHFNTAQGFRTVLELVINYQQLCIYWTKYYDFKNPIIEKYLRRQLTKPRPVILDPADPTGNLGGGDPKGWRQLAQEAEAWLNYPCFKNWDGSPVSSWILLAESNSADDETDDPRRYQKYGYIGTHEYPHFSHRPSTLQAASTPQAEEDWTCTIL
# UniProt Q8N3F8, sequence (Q8N3F8 whole entry): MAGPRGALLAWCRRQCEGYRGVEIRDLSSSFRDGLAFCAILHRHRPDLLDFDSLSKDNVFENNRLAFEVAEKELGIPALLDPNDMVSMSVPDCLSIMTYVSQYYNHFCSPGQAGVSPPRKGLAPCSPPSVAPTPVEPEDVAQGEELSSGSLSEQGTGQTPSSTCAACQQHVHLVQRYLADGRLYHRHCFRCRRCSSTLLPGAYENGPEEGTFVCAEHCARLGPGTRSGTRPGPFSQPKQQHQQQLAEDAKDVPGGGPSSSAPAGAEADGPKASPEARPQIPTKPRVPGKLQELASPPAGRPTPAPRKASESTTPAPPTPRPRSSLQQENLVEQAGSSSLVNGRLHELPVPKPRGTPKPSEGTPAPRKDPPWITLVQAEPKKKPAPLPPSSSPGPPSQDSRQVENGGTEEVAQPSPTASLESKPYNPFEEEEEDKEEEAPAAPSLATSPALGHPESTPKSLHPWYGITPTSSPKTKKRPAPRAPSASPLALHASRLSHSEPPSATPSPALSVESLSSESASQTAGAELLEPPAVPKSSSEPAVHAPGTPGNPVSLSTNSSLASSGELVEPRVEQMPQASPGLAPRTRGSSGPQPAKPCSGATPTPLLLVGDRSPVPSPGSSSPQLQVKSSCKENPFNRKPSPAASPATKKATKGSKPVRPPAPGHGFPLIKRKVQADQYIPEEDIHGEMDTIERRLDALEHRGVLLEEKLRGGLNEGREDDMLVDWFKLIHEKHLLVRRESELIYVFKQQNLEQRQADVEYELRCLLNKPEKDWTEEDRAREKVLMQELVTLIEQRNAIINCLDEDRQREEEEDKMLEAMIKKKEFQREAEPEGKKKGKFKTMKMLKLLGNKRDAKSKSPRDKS
# UniProt P54105, sequence (P54105 whole entry): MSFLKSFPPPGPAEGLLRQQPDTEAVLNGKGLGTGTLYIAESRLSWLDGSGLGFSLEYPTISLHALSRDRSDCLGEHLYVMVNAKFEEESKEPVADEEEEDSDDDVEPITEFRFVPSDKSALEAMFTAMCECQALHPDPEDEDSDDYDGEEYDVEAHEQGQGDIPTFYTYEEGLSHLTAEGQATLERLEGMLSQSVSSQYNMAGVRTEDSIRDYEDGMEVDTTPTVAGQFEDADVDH
# UniProt Q14457, sequence (Q14457 whole entry): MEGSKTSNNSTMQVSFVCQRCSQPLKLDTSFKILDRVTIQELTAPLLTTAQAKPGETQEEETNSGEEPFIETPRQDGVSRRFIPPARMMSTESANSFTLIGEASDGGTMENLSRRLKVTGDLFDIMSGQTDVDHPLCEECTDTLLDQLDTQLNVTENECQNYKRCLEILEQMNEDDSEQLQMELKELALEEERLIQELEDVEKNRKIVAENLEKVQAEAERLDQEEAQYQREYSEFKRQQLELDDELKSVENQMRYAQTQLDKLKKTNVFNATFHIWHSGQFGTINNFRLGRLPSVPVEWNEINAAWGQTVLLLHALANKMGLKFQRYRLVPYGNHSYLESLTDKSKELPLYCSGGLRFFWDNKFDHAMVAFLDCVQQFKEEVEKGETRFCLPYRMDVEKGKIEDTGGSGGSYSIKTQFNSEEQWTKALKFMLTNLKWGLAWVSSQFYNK
# UniProt A6ND36, sequence (A6ND36 whole entry): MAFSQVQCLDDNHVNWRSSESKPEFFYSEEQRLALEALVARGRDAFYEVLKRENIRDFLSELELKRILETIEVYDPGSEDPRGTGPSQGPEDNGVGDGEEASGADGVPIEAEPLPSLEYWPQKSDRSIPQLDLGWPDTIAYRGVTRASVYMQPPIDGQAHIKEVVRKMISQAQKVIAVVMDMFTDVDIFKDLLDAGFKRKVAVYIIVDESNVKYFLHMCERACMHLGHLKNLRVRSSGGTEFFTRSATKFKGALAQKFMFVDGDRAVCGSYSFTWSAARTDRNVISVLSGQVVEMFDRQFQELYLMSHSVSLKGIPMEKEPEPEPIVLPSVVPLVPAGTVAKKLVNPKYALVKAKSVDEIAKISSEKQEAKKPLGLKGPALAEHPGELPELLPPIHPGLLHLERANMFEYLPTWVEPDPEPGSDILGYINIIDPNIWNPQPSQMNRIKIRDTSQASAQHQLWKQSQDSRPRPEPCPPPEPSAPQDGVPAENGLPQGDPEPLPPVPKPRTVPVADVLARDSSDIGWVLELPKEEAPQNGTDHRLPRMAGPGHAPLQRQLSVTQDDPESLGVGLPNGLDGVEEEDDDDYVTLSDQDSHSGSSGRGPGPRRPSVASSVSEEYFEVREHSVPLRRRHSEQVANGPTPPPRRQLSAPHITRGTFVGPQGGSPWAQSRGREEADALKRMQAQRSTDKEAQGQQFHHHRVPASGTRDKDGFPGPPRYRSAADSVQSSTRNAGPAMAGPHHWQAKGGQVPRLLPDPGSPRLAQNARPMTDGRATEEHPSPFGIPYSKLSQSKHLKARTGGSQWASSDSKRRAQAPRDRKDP
# UniProt Q9HBM0, sequence (Q9HBM0 whole entry): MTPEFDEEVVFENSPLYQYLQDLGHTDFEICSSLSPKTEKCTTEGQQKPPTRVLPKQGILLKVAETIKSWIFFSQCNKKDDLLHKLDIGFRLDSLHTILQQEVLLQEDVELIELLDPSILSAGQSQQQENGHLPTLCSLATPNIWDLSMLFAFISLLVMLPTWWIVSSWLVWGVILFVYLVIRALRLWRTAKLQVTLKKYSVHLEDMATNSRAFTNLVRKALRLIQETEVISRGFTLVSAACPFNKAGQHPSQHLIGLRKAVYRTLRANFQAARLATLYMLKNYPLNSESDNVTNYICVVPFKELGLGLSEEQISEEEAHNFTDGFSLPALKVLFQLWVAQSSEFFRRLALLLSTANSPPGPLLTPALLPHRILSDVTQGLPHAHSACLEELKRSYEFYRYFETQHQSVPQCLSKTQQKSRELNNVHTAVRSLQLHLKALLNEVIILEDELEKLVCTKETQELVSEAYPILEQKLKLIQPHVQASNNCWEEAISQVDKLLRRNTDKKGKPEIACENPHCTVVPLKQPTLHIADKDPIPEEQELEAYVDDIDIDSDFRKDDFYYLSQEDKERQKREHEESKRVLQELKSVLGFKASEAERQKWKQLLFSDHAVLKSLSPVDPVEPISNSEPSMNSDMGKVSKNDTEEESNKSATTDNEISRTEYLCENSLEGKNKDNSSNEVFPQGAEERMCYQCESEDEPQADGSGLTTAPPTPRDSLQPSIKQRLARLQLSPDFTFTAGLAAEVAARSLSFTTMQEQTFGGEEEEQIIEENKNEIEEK
# UniProt P50750, sequence (P50750 whole entry): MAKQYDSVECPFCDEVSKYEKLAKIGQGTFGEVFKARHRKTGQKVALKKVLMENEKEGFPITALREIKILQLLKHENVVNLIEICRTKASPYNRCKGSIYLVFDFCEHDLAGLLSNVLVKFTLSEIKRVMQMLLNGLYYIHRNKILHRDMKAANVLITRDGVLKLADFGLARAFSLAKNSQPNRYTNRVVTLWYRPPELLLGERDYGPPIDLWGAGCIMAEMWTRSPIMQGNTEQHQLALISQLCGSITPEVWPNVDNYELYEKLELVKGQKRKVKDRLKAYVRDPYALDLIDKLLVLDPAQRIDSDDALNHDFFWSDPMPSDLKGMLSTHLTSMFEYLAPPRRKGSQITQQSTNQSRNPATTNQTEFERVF
# UniProt P82909, sequence (P82909 whole entry): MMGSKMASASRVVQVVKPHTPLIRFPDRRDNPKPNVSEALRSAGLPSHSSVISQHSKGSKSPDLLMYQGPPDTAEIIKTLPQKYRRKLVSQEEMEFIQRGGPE
# UniProt Q9NX24, sequence (Q9NX24 whole entry): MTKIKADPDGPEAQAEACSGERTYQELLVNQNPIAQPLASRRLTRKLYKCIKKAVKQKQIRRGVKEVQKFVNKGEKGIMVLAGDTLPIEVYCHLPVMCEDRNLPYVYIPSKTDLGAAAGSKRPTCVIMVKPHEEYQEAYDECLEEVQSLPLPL
Target,thermal stability z-score (lipoamide; [1]),thermal stability z-score (lipoamide; arsenate co-treatment: none),thermal stability z-score (potassium arsenate)
RPIA (UniProt P49247),0.704,0.8,0.27
SDF4 (UniProt Q9BRK5),-1.8,-1.61,0.389
PFKL (UniProt P17858),0.344,0.367,0.476
PANK3 (UniProt Q9H999),1.22,0.571,0.672
BECN1 (UniProt Q14457),-0.39,-0.238,-0.408
KIDINS220 (UniProt Q9ULH0),-0.105,0.516,0.0983
STEAP3 (UniProt Q658P3),0.104,0.572,-0.122
ADAM17 (UniProt P78536),-1.11,-0.994,-0.966
VEZT (UniProt Q9HBM0),-0.758,-0.707,-0.349
ENTHD2 (UniProt Q96N21),-0.00439,-0.0659,-0.479
ARHGAP29 (UniProt Q52LW3),-0.215,-0.998,-1.28
API5 (UniProt Q9BZZ5),0.11,0.124,0.0226
MICALL1 (UniProt Q8N3F8),-0.217,0.212,-0.602
SLC12A6 (UniProt Q9UHW9),-0.454,-0.27,0.131
NELFA (UniProt Q9H3P2),-0.1,-0.0674,-0.107
CHUK (UniProt O15111),0.887,0.727,0.578
OLR1 (UniProt P78380),-0.828,-0.797,0.938
YDJC (UniProt A8MPS7),-0.851,-1.66,-1.04

Target,thermal stability z-score (lipoamide; [1]),thermal stability z-score (lipoamide; arsenate co-treatment: none),thermal stability z-score (potassium arsenate)
FLAD1 (UniProt Q8NFF5),0.0301,0.05,-1.16
NHP2 (UniProt Q9NX24),-0.434,-0.739,-0.721
PSMC1 (UniProt P62191),-0.269,-0.208,-0.724
ZNF579 (UniProt Q8NAF0),-0.34,-0.434,0.155
CLNS1A (UniProt P54105),0.733,0.695,-1.75
ATR (UniProt Q13535),-0.0437,0.124,-0.568
USP3 (UniProt Q9Y6I4),0.0204,0.0221,-2.27
MRPS36 (UniProt P82909),0.32,0.0105,0.55
CDK9 (UniProt P50750),-0.226,-0.263,0.544
UBE2F (UniProt Q969M7),-0.0267,-0.0251,-0.224
FARSA (UniProt Q9Y285),-1.41,-0.546,0.0543
ARHGEF5 (UniProt Q12774),-0.685,0.596,0.214
CLMP (UniProt Q9H6B4),0.616,1.03,-0.738
SUN2 (UniProt Q9UH99),-1.43,-1.36,-0.0506
OAS1 (UniProt P00973),-0.156,0.0182,-0.247
FAM83G (UniProt A6ND36),-0.123,0.00979,0.138
APEX2 (UniProt Q9UBZ4),0.0959,0.209,-0.747
HSP90AA4P (UniProt Q58FG1),-1.84,-1.53,-2.39
